{
  "source": "patent US8076348B2",
  "about": "“Acylguanidine derivative or salt thereof” (Astellas Pharma Inc., priority 2005, dated 2011)",
  "key": {"Hartley male guinea pigs": {"test_system": "Hartley male guinea pigs", "assay": "Preventive effect in guinea pig migraine model (5-HT-induced dura mater protein leakage)", "assay_type": "in vivo", "settings": "for minimum amount showing the maximum drug efficacy / dose at which the leaked protein quantity-reducing action was shown / lowering of leaked protein quantity to the standard value when the dose was increased: intravenous; for dose at which the leaked protein quantity-reducing action was shown: 5-HT-induced leakage; for lowering of leaked protein quantity to the standard value when the dose was increased: RS-127445 3 to 10 mg/kg, SB-269970 10 to 30 mg/kg", "protocol": "Test Method (5) Preventive Effect in Guinea Pig Migraine Model\nThis test system evaluates the migraine-preventive effect by measuring the amount of this leaked protein in the presence of a compound to be tested and was carried out by partially modifying the method described by Rachel A. Spokes and Vicki C. Middlefell in “European Journal of Pharmacology”, (Holland), 1995, vol. 281, p. 75-79.\nHartley male guinea pigs (250 to 350 g) were anesthetized by the intraperitoneal administration (i.p.) of urethane (1.5 g/kg). By applying a simple canulation to a latent vein, 50 mg/kg of a fluorescent protein (FITC-BSA) was intravenously administered (i.v.) and, 5 minutes thereafter, physiological saline or 1 μmol/ml/kg of 5-HT was intravenously administered. Perfusion was carried out with physiological saline 15 minutes thereafter and blood was washed out. […] By detaching the skull, the dura mater was extracted and incubated in an Eppendorf tube at 37° C. for 16 hours in the presence of physiological saline adjusted to pH 11. By carrying out a centrifugal operation, the supernatant was dispensed into a plate. The fluorescence intensity was measured using a fluorescence plate reader (excitation wavelength 485 nm, […] 530 nm). By weighing the dura mater weight, the fluorescence intensity per mg dura mater protein was calculated.\nThe values of fluorescence intensity measured at the time of the administration and non-administration of each compound are shown in FIG. 4 to FIG. 7."}, "male Wistar rats": {"test_system": "male Wistar rats", "assay": "Inhibitory effect for defecation at the time of confined stress loading (rat confined stress defecation model)", "assay_type": "in vivo", "settings": "for action to suppress defecation (number of feces): 10 mg/kg p.o., compound used independently, feces counted 1 hour after stress loading, 10 mg/kg; for number of feces, significant difference in comparison with the non-administration group: rat, 1, 3 and 10 mg/kg administration groups, N=10", "protocol": "Test Method (4) Inhibitory Effect for Defecation at the Time of Confined Stress Loading\nThe IBS-treating effect of the compound (I) of the present invention was evaluated using a method in which a confined stress is applied to rats and the evacuation quantity is measured (cf. “The Journal of Pharmacology Experimental Therapeutics”, (USA), 1992, vol. 261, p. 297-303).\nAn agent to be tested was administered to male Wistar rats (body weight 250 to 320 g, 10 animals for each group) and a confined stress was applied thereto 30 minutes thereafter. A confining cage (trade name: KN-468, 265 mm in width×95 mm in length×200 mm in height, Natsume Seisakusho, Tokyo) was used in the confined stress loading, and the number of feces during 1 hour after the stress loading was counted."}, "human 5-HT7 receptor": {"biological_target": "T1, human 5-HT7 receptor (Homo sapiens, UniProt P34969)", "T1 construct": "expressed in transfected cells; host or cells: CHO cells (membrane sample)", "T1 sequence (P34969 whole entry)": "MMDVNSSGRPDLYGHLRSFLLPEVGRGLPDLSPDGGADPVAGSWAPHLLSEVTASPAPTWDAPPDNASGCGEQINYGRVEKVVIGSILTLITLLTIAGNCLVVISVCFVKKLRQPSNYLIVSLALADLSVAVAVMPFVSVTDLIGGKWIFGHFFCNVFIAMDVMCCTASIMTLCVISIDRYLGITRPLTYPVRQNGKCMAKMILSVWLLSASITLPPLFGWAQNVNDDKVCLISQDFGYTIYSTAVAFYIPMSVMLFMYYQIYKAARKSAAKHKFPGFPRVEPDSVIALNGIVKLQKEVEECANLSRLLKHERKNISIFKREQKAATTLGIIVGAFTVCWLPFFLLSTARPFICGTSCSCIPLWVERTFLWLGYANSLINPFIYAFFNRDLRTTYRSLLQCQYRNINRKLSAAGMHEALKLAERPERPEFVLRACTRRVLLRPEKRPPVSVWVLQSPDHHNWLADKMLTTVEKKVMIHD", "assay": "5-HT7 receptor binding test", "settings": "[3H] 5-HT, human 5-HT7 receptor expressing CHO cell membrane", "protocol": "Test Method (2) 5-HT7 Receptor Binding Test (i) Membrane Sample Preparation\nCultured human 5-HT7 receptor expressing CHO cells were washed PBS(−). The cells were peeled off using a scraper in the presence of PBS(−), and the cells were recovered by a centrifugal treatment (1,000 rpm, 10 min, 4° C.). In the presence of 5 mM Tris-HCl (pH 7.4) buffer, these were homogenized using a homogenizer (registered trademark: Polytron (PTA 10-TS)) and subjected to a centrifugal treatment (40,000×g, 10 min, 4° C.). In the presence of 50 mM Tris-HCl (pH 7.4) buffer, these were suspended using a glass-Teflon (registered trademark) homogenizer. By carrying out a centrifugal treatment (40,000×g, 10 min, 4° C.), these were suspended in 50 mM Tris-HCl (pH 7.4) and stored at −80° C.\n(§1) (ii) Receptor Binding Test\n(§2) A total volume of 500 μl containing 50 mM Tris-HCl, 4 mM CaCl2 (pH 7.4) buffer, the human 5-HT7 receptor expressing CHO cell membrane sample and a radio ligand [^3H] 5-HT (3.40 TBq/mmol) was incubated at 25° C. for 1 hour. The compound was dissolved in 100% DMSO and diluted to respective concentrations. Nonspecific binding was regarded as the binding quantity in the presence of 10 μM metergoline, and a result of subtracting the nonspecific binding quantity from the total binding quantity was regarded as the specific binding quantity. By adding 4 ml of 50 mM Tris-HCl buffer (pH 7.4), filtered under a reduced pressure trough a GF/B glass filter, and the filter was washed with the same buffer (4 ml×3). The glass filter was soaked in 5 ml of a liquid scintillator (trade name: Aquasol-2), and the radioactivity quantity was measured using a liquid scintillation counter."}, "5-HT2B receptor [1]": {"biological_target": "T2, 5-HT2B receptor (Homo sapiens, UniProt P41595)", "T2 sequence (P41595 whole entry)": "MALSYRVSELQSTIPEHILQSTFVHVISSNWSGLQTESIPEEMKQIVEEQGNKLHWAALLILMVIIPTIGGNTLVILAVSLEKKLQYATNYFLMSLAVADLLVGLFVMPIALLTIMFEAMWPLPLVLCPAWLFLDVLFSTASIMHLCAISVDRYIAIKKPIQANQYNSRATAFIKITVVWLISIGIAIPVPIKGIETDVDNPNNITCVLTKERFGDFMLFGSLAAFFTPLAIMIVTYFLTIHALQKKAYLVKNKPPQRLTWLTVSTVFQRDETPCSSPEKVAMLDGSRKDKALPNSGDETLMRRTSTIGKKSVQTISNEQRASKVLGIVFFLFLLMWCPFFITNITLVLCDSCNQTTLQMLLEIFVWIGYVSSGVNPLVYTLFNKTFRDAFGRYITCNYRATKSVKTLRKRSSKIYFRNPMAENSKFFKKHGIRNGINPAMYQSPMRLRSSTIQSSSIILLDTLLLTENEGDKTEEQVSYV", "assay": "5-HT2B receptor binding test", "design": "expressed in transfected cells; host or cells: HEK293-EBNA cells (membrane sample)", "settings": "[3H] Mesulergine, human 5-HT2B receptor expressing HEK293-EBNA cell membrane", "protocol": "Test Method (1) 5-HT2B Receptor Binding Test\n(i) Membrane Sample Preparation\nCultured human 5-HT2B receptor-expressing HEK293-EBNA cells were washed with a phosphate buffer (PBS)(−). The cells were peeled off using a scraper in the presence of PBS(−), and the cells were recovered by a centrifugal treatment (1,000 rpm, 10 min, 4° C.). In the presence of 5 mM tris-hydrochloric acid (Tris-HCl) (pH 7.4) buffer, these were homogenized using a homogenizer (registered trademark: Polytron (PTA 10-TS)) and subjected to a centrifugal treatment (40,000×g, 10 min, 4° C.). In the presence of 50 mM Tris-HCl (pH 7.4) buffer, these were suspended using a glass-Teflon (registered trademark) homogenizer. By carrying out a centrifugal treatment (40,000×g, 10 min, 4° C.), these were suspended in 50 mM Tris-HCl (pH 7.4) and stored at −80° C.\nas §1\nas §2, with “Tris-HCl, 4-mM-CaCl2” for “Tris-HCl, 4 mM CaCl2”, “human 5-HT2B” for “human 5-HT7”, “expressing HEK293-EBNA” for “expressing CHO”, “[^3H] Mesulergine (3.1 TBq/mmol);” for “[^3H] 5-HT (3.40 TBq/mmol)”, “of 1” for “of 10”, “μM ritanserin,” for “μM metergoline,”"}, "5-HT2B receptor [2]": {"biological_target": "T2, 5-HT2B receptor", "settings": "literature value; cited from earlier work"}},
  "data": [
    {"compound": "CC1CCN(CC[C@H]2CCCN2S(=O)(=O)c2cccc(O)c2)CC1", "note": "[SB-269970, (R)-3-(2-(2-(4-methylpiperidine-1-yl)ethyl)pyrrolidine-1-sulfonyl)phenol]", "values": [
      {"measurement": "minimum amount showing the maximum drug efficacy", "setting": "Hartley male guinea pigs", "result": 10, "unit": "mg/kg"},
      {"measurement": "dose at which the leaked protein quantity-reducing action was shown", "setting": "Hartley male guinea pigs", "result": 10, "unit": "mg/kg"},
      {"measurement": "lowering of leaked protein quantity to the standard value when the dose was increased", "setting": "Hartley male guinea pigs", "result": "did not lower the leaked protein quantity to the standard value"},
      {"measurement": "action to suppress defecation (number of feces)", "setting": "male Wistar rats; rat", "result": "did not show the action to suppress defecation"},
      {"measurement": "number of feces, significant difference in comparison with the non-administration group", "setting": "male Wistar rats", "result": "Significant difference was not found"}
    ]},
    {"compound": "CC(C)n1c2ccccc2c2ccc(C(=O)N=C(N)N)cc21", "note": "[Example 1, N-(diaminomethylene)-9-isopropyl-9H-carbazole-2-carboxamide]", "values": [
      {"measurement": "Ki", "setting": "human 5-HT7 receptor", "result": 0.64, "unit": "nM"},
      {"measurement": "leaked protein quantity", "setting": "Hartley male guinea pigs; 30 mg/kg oral administration", "result": "almost completely suppressed the leaked protein quantity"},
      {"measurement": "Ki", "setting": "5-HT2B receptor [1]", "result": 4.6, "unit": "nM"}
    ]},
    {"compound": "NC(N)=NC(=O)c1ccc2c(c1)C1(SCCS1)c1ccsc1-2", "note": "[Example 81, N-(diaminomethylene)spiro[1,3-dithiolan-2,4′-indeno[1,2-b]thiophene]-6′-carboxamide]", "values": [
      {"measurement": "Ki", "setting": "human 5-HT7 receptor", "result": 0.78, "unit": "nM"},
      {"measurement": "Ki", "setting": "5-HT2B receptor [1]", "result": 0.83, "unit": "nM"}
    ]},
    {"compound": "CC(C)c1cc(-c2ccc(F)c3ccccc23)nc(N)n1", "note": "[RS-127445, 2-amino-4-(4-fluoronaphth-1-yl)-6-isopropylpyrimidine]", "values": [
      {"measurement": "5-HT2B receptor-selective against 5-HT1A, 5-HT1B, 5-HT2A, 5-HT2C, 5-HT3, 5-HT6, 5-HT7, α1, M1, D2 and the like receptors", "setting": "5-HT2B receptor [2]", "result": "≥ 1000", "unit": "times"},
      {"measurement": "minimum amount showing the maximum drug efficacy", "setting": "Hartley male guinea pigs", "result": 3, "unit": "mg/kg"},
      {"measurement": "dose at which the leaked protein quantity-reducing action was shown", "setting": "Hartley male guinea pigs", "result": 3, "unit": "mg/kg"},
      {"measurement": "lowering of leaked protein quantity to the standard value when the dose was increased", "setting": "Hartley male guinea pigs", "result": "did not lower it to the standard value"},
      {"measurement": "action to suppress defecation (number of feces)", "setting": "male Wistar rats; rat", "result": "did not show the action to suppress defecation"},
      {"measurement": "number of feces, significant difference in comparison with the non-administration group", "setting": "male Wistar rats", "result": "Significant difference was not found"}
    ]},
    {"compound": "NC(N)=NC(=O)c1ccc2c(c1)C1(CCCO1)c1ccsc1-2", "note": "(centres unmarked) [Example 84, N-(diaminomethylene)-4,5-dihydro-3H-spiro[furan-2,4′-indeno[1,2-b]thiophene]-6′-carboxamide]", "values": [
      {"measurement": "Ki", "setting": "human 5-HT7 receptor", "result": 2.5, "unit": "nM"},
      {"measurement": "Ki", "setting": "5-HT2B receptor [1]", "result": 1.3, "unit": "nM"},
      {"measurement": "ED50", "setting": "male Wistar rats; po, rat, p.o., read-out: ED50 (50% effective dose), suppressing action on defecation", "result": 0.72, "unit": "mg/kg"}
    ]},
    {"compound": "COC1(C)c2cc(C(=O)N=C(N)N)ccc2-c2sccc21", "note": "(centres unmarked) [Example 83]", "values": [
      {"measurement": "Ki", "setting": "human 5-HT7 receptor", "result": 0.99, "unit": "nM"},
      {"measurement": "Ki", "setting": "5-HT2B receptor [1]", "result": 1.5, "unit": "nM"}
    ]},
    {"compound": "CC(C)N1c2ccccc2Oc2ccc(C(=O)N=C(N)N)cc21", "note": "[Example 66, N-(diaminomethylene)-10-isopropyl-10H-phenoxazine-2-carboxamide]", "values": [
      {"measurement": "Ki", "setting": "human 5-HT7 receptor", "result": 2.6, "unit": "nM"},
      {"measurement": "Ki", "setting": "5-HT2B receptor [1]", "result": 0.26, "unit": "nM"}
    ]}
  ]
}
